Reference: the NIST ThermoML archive (doi:10.1016/j.fluid.2008.07.006)

How the values were obtained:
[1] = 101.33 kPa, Liquid
[2] = xn = mol fraction of the nth substance listed; settings: 101 kPa, Fluid (supercritical or subcritical phases)
[3] = cn = amount concentration of the nth substance listed, in mol/dm3; settings: 101 kPa, Liquid, Direct current cell with electrodes

CCn1cc[n+](C)c1.COCCOCCOS(=O)(=O)[O-] [1-ethyl-3-methylimidazolium 2-(2-methoxyethoxy) ethylsulfate]
[1]
Settings | mass density [kg/m3]
303.2 K | 1233.4
308.2 K | 1230
313.2 K | 1226.6
318.2 K | 1223.3
323.2 K | 1219.9

CCn1cc[n+](C)c1.COCCOCCOS(=O)(=O)[O-] [1-ethyl-3-methylimidazolium 2-(2-methoxyethoxy) ethylsulfate] + O
Settings | binary diffusion coefficient, 303.2 K [m2/s] | binary diffusion coefficient, 308.2 K [m2/s] | binary diffusion coefficient, 313.2 K [m2/s] | binary diffusion coefficient, 318.2 K [m2/s] | binary diffusion coefficient, 323.2 K [m2/s] | molar conductivity, 303.2 K [S·m2/mol] | molar conductivity, 308.2 K [S·m2/mol] | molar conductivity, 313.2 K [S·m2/mol] | molar conductivity, 318.2 K [S·m2/mol] | molar conductivity, 323.2 K [S·m2/mol]
[2], x2 = 0 | 9.95e-10 | 1.06e-09 | 1.27e-09 | 1.32e-09 | 1.51e-09 | – | – | – | – | –
[3], c1 = 9e-10 | – | – | – | – | – | 0.0074 | 0.0081 | 0.009 | 0.0098 | 0.0107
[3], c1 = 3.9e-09 | – | – | – | – | – | 0.0067 | 0.0075 | 0.0082 | 0.0091 | 0.0097
[3], c1 = 1.06e-08 | – | – | – | – | – | 0.0062 | 0.007 | 0.0077 | 0.0084 | 0.0091
[3], c1 = 1.82e-08 | – | – | – | – | – | 0.006 | 0.0067 | 0.0074 | 0.0081 | 0.0088
[3], c1 = 2.57e-08 | – | – | – | – | – | 0.0059 | 0.0065 | 0.0072 | 0.0076 | 0.0083

CCn1cc[n+](C)c1.N#CN=C=[N-] [1-ethyl-3-methylimidazolium dicyanamide]
[1]
Settings | mass density [kg/m3]
303.2 K | 1105.8
308.2 K | 1102.6
313.2 K | 1099.4
318.2 K | 1096.2
323.2 K | 1093

CCn1cc[n+](C)c1.N#CN=C=[N-] [1-ethyl-3-methylimidazolium dicyanamide] + O
Settings | binary diffusion coefficient, 303.2 K [m2/s] | binary diffusion coefficient, 308.2 K [m2/s] | binary diffusion coefficient, 313.2 K [m2/s] | binary diffusion coefficient, 318.2 K [m2/s] | binary diffusion coefficient, 323.2 K [m2/s] | molar conductivity, 303.2 K [S·m2/mol] | molar conductivity, 308.2 K [S·m2/mol] | molar conductivity, 313.2 K [S·m2/mol] | molar conductivity, 318.2 K [S·m2/mol] | molar conductivity, 323.2 K [S·m2/mol]
[2], x1 = 0 | 1.25e-09 | 1.41e-09 | 1.54e-09 | 1.71e-09 | 1.85e-09 | – | – | – | – | –
[3], c1 = 1.2e-09 | – | – | – | – | – | 0.0095 | 0.0103 | 0.011 | 0.0123 | 0.0133
[3], c1 = 6.6e-09 | – | – | – | – | – | 0.009 | 0.0098 | 0.0108 | 0.0118 | 0.0128
[3], c1 = 1.19e-08 | – | – | – | – | – | 0.0087 | 0.0095 | 0.0105 | 0.0113 | 0.0125
[3], c1 = 2.28e-08 | – | – | – | – | – | 0.0083 | 0.0092 | 0.01 | 0.0109 | 0.0119
[3], c1 = 4.15e-08 | – | – | – | – | – | 0.0079 | 0.0088 | 0.0095 | 0.0103 | 0.0114

CCOS(=O)(=O)[O-].CCn1cc[n+](C)c1 [1-ethyl-3-methylimidazolium ethyl sulfate]
[1]
Settings | mass density [kg/m3]
303.2 K | 1232.7
308.2 K | 1229.4
313.2 K | 1226.2
318.2 K | 1222.9
323.2 K | 1219.7

CCOS(=O)(=O)[O-].CCn1cc[n+](C)c1 [1-ethyl-3-methylimidazolium ethyl sulfate] + O
Settings | binary diffusion coefficient, 303.2 K [m2/s] | binary diffusion coefficient, 308.2 K [m2/s] | binary diffusion coefficient, 313.2 K [m2/s] | binary diffusion coefficient, 318.2 K [m2/s] | binary diffusion coefficient, 323.2 K [m2/s] | molar conductivity, 303.2 K [S·m2/mol] | molar conductivity, 308.2 K [S·m2/mol] | molar conductivity, 313.2 K [S·m2/mol] | molar conductivity, 318.2 K [S·m2/mol] | molar conductivity, 323.2 K [S·m2/mol]
[2], x1 = 0 | 1.04e-09 | 1.19e-09 | 1.4e-09 | 1.5e-09 | 1.64e-09 | – | – | – | – | –
[3], c1 = 1.6e-09 | – | – | – | – | – | 0.008 | 0.0089 | 0.0097 | 0.0106 | 0.0116
[3], c1 = 4.6e-09 | – | – | – | – | – | 0.0076 | 0.0084 | 0.0092 | 0.0101 | 0.011
[3], c1 = 8.6e-09 | – | – | – | – | – | 0.0074 | 0.0081 | 0.0089 | 0.0097 | 0.0106
[3], c1 = 1.72e-08 | – | – | – | – | – | 0.0071 | 0.0079 | 0.0086 | 0.0095 | 0.0102
[3], c1 = 3.58e-08 | – | – | – | – | – | 0.0065 | 0.0073 | 0.0082 | 0.0091 | 0.0098

CCn1cc[n+](C)c1.F[B-](F)(F)F [1-ethyl-3-methylimidazolium tetrafluoroborate]
[1]
Settings | mass density [kg/m3]
303.2 K | 1278.7
308.2 K | 1275
313.2 K | 1271.4
318.2 K | 1267.8
323.2 K | 1264.2

CCn1cc[n+](C)c1.F[B-](F)(F)F [1-ethyl-3-methylimidazolium tetrafluoroborate] + O
Settings | binary diffusion coefficient, 303.2 K [m2/s] | binary diffusion coefficient, 308.2 K [m2/s] | binary diffusion coefficient, 313.2 K [m2/s] | binary diffusion coefficient, 318.2 K [m2/s] | binary diffusion coefficient, 323.2 K [m2/s] | molar conductivity, 303.2 K [S·m2/mol] | molar conductivity, 308.2 K [S·m2/mol] | molar conductivity, 313.2 K [S·m2/mol] | molar conductivity, 318.2 K [S·m2/mol] | molar conductivity, 323.2 K [S·m2/mol]
[2], x1 = 0 | 1.5e-09 | 1.57e-09 | 1.69e-09 | 1.88e-09 | 2.01e-09 | – | – | – | – | –
[3], c1 = 1e-09 | – | – | – | – | – | 0.0119 | 0.013 | 0.0139 | 0.0149 | 0.0162
[3], c1 = 5.5e-09 | – | – | – | – | – | 0.0111 | 0.0121 | 0.0131 | 0.0142 | 0.0153
[3], c1 = 1.32e-08 | – | – | – | – | – | 0.0105 | 0.0116 | 0.0125 | 0.0136 | 0.0146
[3], c1 = 2.22e-08 | – | – | – | – | – | 0.0101 | 0.0111 | 0.012 | 0.013 | 0.014
[3], c1 = 4.15e-08 | – | – | – | – | – | 0.009 | 0.0099 | 0.0108 | 0.0117 | 0.0127

CCn1cc[n+](C)c1.O=S(=O)([O-])C(F)(F)F [1-ethyl-3-methylimidazolium trifluoromethanesulfonate]
[1]
Settings | mass density [kg/m3]
303.2 K | 1377.3
308.2 K | 1373.3
313.2 K | 1369.3
318.2 K | 1365.3
323.2 K | 1361.2

CCn1cc[n+](C)c1.O=S(=O)([O-])C(F)(F)F [1-ethyl-3-methylimidazolium trifluoromethanesulfonate] + O
Settings | binary diffusion coefficient, 303.2 K [m2/s] | binary diffusion coefficient, 308.2 K [m2/s] | binary diffusion coefficient, 313.2 K [m2/s] | binary diffusion coefficient, 318.2 K [m2/s] | binary diffusion coefficient, 323.2 K [m2/s] | molar conductivity, 303.2 K [S·m2/mol] | molar conductivity, 308.2 K [S·m2/mol] | molar conductivity, 313.2 K [S·m2/mol] | molar conductivity, 318.2 K [S·m2/mol] | molar conductivity, 323.2 K [S·m2/mol]
[2], x1 = 0 | 1.16e-09 | 1.27e-09 | 1.51e-09 | 1.66e-09 | 1.8e-09 | – | – | – | – | –
[3], c1 = 1.2e-09 | – | – | – | – | – | 0.0083 | 0.0093 | 0.0101 | 0.011 | 0.012
[3], c1 = 3.8e-09 | – | – | – | – | – | 0.0079 | 0.0088 | 0.0097 | 0.0106 | 0.0114
[3], c1 = 8.7e-09 | – | – | – | – | – | 0.0077 | 0.0085 | 0.0093 | 0.0102 | 0.0111
[3], c1 = 1.86e-08 | – | – | – | – | – | 0.0073 | 0.008 | 0.0088 | 0.0095 | 0.0103
[3], c1 = 3.19e-08 | – | – | – | – | – | 0.0069 | 0.0077 | 0.0084 | 0.0092 | 0.01

F[B-](F)(F)F.[Li+] [lithium fluoroborate] + O
molar conductivity [S·m2/mol], [3]
Settings | 303.2 K | 308.2 K | 313.2 K | 318.2 K | 323.2 K
c1 = 3e-09 | 0.0117 | 0.0126 | 0.0134 | 0.0144 | 0.0158
c1 = 1.11e-08 | 0.0111 | 0.0122 | 0.0129 | 0.0139 | 0.0155
c1 = 2.73e-08 | 0.0106 | 0.0119 | 0.0125 | 0.0135 | 0.0152
c1 = 4.81e-08 | 0.0103 | 0.0115 | 0.0121 | 0.0131 | 0.0149
c1 = 7.55e-08 | 0.01 | 0.0112 | 0.0118 | 0.0127 | 0.0145
